Test results reported in patent EP0073715A1, “Brominated compounds for use in opacifying products” (Société dite: GUERBET S.A., priority 1981, dated 1983).

Assay: Protein binding (Brodersen technique)
Conditions: weaker interaction means better tolerance, read-out: Liaison protéique (converted)
Text: Plus cette interaction est faible et meilleure est la tolérance.

`O=C(CCCCC(=O)Nc1c(I)cc(I)c(C(=O)O)c1I)Nc1c(I)cc(I)c(C(=O)O)c1I` [Adipiodone de méthylglucamine] showed a Kd of 78.1 µM.
